Results: PMC9311798, “A Novel Class of Potent Anti-Tyrosinase Compounds with Antioxidant Activity, 2-(Substituted phenyl)-5-(trifluoromethyl)benzo[d]thiazoles: In Vitro and In Silico Insights” (Antioxidants, 2022)
“Also recorded” adds a separate entry of the source.

How the values were obtained:
[1] = test system: tyrosinase glycosylation in B16F10 cells; test: Western blot of glycosylated and non-glycosylated tyrosinase; assay type: cell-based, murine; settings: 2, 5, 10, 20 µM, 48 h; cytosolic fraction
Description: Five different concentrations of 1b (0, 2, 5, 10, and 20 µM) were exposed to B16F10 cells for 48 h, and the cells were washed with cold PBS two times, harvested, lysed, and centrifuged at 4 °C (12,000 rpm for 10 min). Cell pellets were suspended in 10 mM Tris (pH 8.0) containing 1.5 mM MgCl2, 1 mM DTT, 0.1% NP-40, and protease inhibitors (GenDEPOT), incubated on ice for 15 min, and centrifuged at 12,000× g for 15 min at 4 °C. Supernatants (cytosolic fractions) and pellets were resuspended in 10 mM Tris (pH 8.0) containing 50 mM KCl, 100 mM NaCl, and protease inhibitor, incubated on ice for 30 min, and centrifuged at 12,000× g for 15 min at 4 °C. The resultant supernatants were nuclear fractions. The protein concentrations were determined by a Bicinchoninic Acid (BCA)™ Assay Kit (Pierce, Rockford, IL, USA). The lysed protein samples were mixed in loading buffer (0.2% bromophenol blue, 12.5 mM Tris-HCl, pH 6.8, 10% 2-mercaptoethanol, and 4% SDS) at a volume ratio of 1:4, and boiled for 10 min. […] Quantification of Western blot data were analyzed by CS Analyzer 3.2 (Densitograph) image software (http://www.attokorea.co.kr, admitted on 21 May 2022).

[2] = test system: B16F10 murine melanoma cells; test: B16F10 cell viability assay (EZ-Cytox); assay type: cell-based; settings: concentrations ≤20 μM, 48 h
Description: B16F10 murine melanoma cells were obtained from the American Type Culture Collection (ATCC, Manassas, VA, USA). Phosphate buffer solution (PBS), Dulbecco’s modified Eagle’s medium (DMEM), streptomycin, penicillin, trypsin, and fetal bovine serum (FBS) were purchased from Gibco/Thermo Fisher Scientific (Carlsbad, CA, USA). B16F10 cells were cultured in a DMEM solution comprising 10% heat-inactivated FBS, penicillin (100 IU/mL), and streptomycin (100 µg/mL), at 37 °C in a humidified 5% CO2 atmosphere. Experiments for anti-melanogenesis activity, cell viability, and anti-tyrosinase activity were assayed on these cells in 96- or 6-well culture plates.
Cell viability assays for B16F10 were performed using the EZ-Cytox assay (EZ-3000, DoGenBio, Seoul, Korea). In brief, B16F10 cells were seeded in a 96-well plate at a density of 1 × 10^4 cells/well, and cultured at 37 °C for 24 h in a humidified 5% CO2 atmosphere. The next day, B16F10 cells were exposed to six concentrations of 1a or 1b (0, 1, 2, 5, 10, or 20 μM), and incubated under the same conditions for 48 h. Then, the EZ-Cytox solution (10 μL) was added to each well, and the cells mixed with the EZ-Cytox solution were further incubated for 2 h. At 450 nm, optical densities were measured using a microplate reader (VersaMax^TM, Molecular Devices, Sunnyvale, CA, USA).

mushroom tyrosinase = target: T1, mushroom tyrosinase (Agaricus bisporus, UniProt C7FF04); test: Kinetic studies on the inhibition of mushroom tyrosinase (Lineweaver–Burk and Dixon plots); assay type: biochemical; settings: for Inhibition type: Lineweaver–Burk plots; for Ki: Dixon plot; for Vmax: regardless of 1b concentration
T1 construct: purchased Sigma-Aldrich
Description: Lineweaver–Burk plots of compound 1b were acquired in the presence of L-tyrosine or L-DOPA as substrates. In brief, 10 µL aliquots of DMSO containing compound 1b (final concentrations: 0, 0.1, 0.2, or 0.4 µM in L-tyrosine, and 0, 1, 2, or 4 μM in L-DOPA) were added to the wells of a 96-well plate containing 170 µL of an aqueous solution (final concentrations: 1.0, 2.0, 4.0, 8.0, or 16.0 mM) of L-tyrosine or L-DOPA, sodium phosphate buffer (final concentration: 14.7 mM, pH 6.5), and 20 µL of mushroom tyrosinase (200 units/mL). Initial rates of dopachrome production were determined by measuring the increases in optical density at 475 nm (ΔOD475/min) using a microplate reader (VersaMax^TM, Molecular Devices, Sunnyvale, CA, USA). Maximal velocity (Vmax) was obtained from Lineweaver–Burk plots obtained using five different L-tyrosine or L-DOPA concentrations. Modes of tyrosinase inhibition were determined using plot convergence points.

T1 sequence (C7FF04 1-392): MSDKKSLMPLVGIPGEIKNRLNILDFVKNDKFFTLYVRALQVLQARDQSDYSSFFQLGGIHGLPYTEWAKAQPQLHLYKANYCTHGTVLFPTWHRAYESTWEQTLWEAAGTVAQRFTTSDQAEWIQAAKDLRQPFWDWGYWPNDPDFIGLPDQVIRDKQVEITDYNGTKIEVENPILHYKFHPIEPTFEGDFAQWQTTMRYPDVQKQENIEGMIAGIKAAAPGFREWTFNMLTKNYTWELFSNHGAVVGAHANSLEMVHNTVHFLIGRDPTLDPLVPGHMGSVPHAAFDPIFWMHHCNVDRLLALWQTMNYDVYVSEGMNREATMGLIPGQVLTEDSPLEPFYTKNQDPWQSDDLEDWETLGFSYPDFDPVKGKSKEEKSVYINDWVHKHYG

Question: For `Oc1ccc(-c2nc3cc(C(F)(F)F)ccc3s2)c(O)c1` [Compound 1b, 4-(5-(Trifluoromethyl)benzo[d]thiazol-2-yl)benzene-1,3-diol], which “ratio of glycosylated tyrosinase to total tyrosinase” value [1] is on record?
Answer: significantly reduced

Question: What about the “cytotoxic effect on B16F10 cell viability” value [2] of the same compound?
Answer: Neither compound exhibited a significant cytotoxic effect

Question: And the Inhibition type (mushroom tyrosinase; L-DOPA as substrate)?
Answer: competitive inhibitor; also recorded: L-DOPA (Inhibition Type ^a: Competitive)

Question: And the Ki (mushroom tyrosinase; L-DOPA)?
Answer: 2450 nM

Question: What about the “Vmax” value (mushroom tyrosinase; L-DOPA) of the same compound?
Answer: 0.00497 mM/min

Question: And the Inhibition type (mushroom tyrosinase; L-tyrosine as substrate)?
Answer: competitive inhibitor; also recorded: L-Tyrosine (Inhibition Type ^a: Competitive)

Question: And the Ki (mushroom tyrosinase; L-tyrosine)?
Answer: 37.6 nM

Question: What about the “Vmax” value (mushroom tyrosinase; L-tyrosine) of the same compound?
Answer: 0.0101 mM/min

Question: What about the melting point of the same compound?
Answer: 236.2 to 238.2 °C
